Laboratory results reported in patent US20140360727A1, “REMEDIATION OF ASPHALTENE-INDUCED PLUGGING OF AN OIL-BEARING FORMATION” (SHELL OIL COMPANY, priority 2013, published 2014).
Read-outs that look alike come from different tables or passages of the source.

Columns and labels:
Assay type in all cases: physicochemical
[1] = SARA analysis of bitumen samples extracted from oil sands by each solvent
Experimental: The bitumen samples extracted at 30° C. from each oil sands sample were evaluated by SARA analysis to determine the saturates, aromatics, resins, and asphaltenes composition of the bitumen samples extracted by each solvent.

[2] = Extraction of mined oil sands with solvents (cyclic contact and drain); conditions: 10 C and 30 C; FIGS. 4 and 5 and Table 1
Experimental: Each oil sands sample was weighed and placed in a cellulose extraction thimble that was placed on a porous polyethylene support disk in a jacketed glass cylinder with a drip rate control valve. Each oil sands sample was then extracted with a selected solvent at a selected temperature (10° C. or 30° C.) in a cyclic contact and drain experiment, where the contact time ranged from 15 to 60 minutes. Fresh contacting solvent was applied and the cyclic extraction repeated until the fluid drained from the apparatus became pale brown in color.
The extracted fluids were stripped of solvent using a rotary evaporator and thereafter vacuum dried to remove residual solvent. […] The residual solids and extraction thimble were air dried, weighed, and then vacuum dried.

[3] = Time required to entirely dissolve naturally occurring tar mat material; conditions: DMS versus A150, both experiments
Experimental: Two experiments were conducted on a naturally occurring tar mat material recovered from an oil-bearing formation to compare the rate of dissolution of the tar mat material using dimethyl sulfide and A150, a commercially available solvent comprised of a mixture of aromatic hydrocarbons that is commonly used to dissolve tar mats. A naturally occurring tar mat material recovered from an oil-bearing formation at a depth of 4690 meters and at a formation temperature of 50° C. was utilized as the tar mat material for the comparison.
(§1) In the first experiment, two samples of DMS solvent and two samples of A150 solvent were individually mixed with the tar mat material at ambient temperature and pressure, where the volume (ml) to weight (g) ratio of each solvent sample to the tar mat material was approximately 100:1. The length of time required to entirely dissolve the tar mat material was measured and recorded.
as §1, with “second” for “first”, “four” for “two”, “10:1.” for “100:1.”

Compound | Aromatics, oil composition of extracted bitumen ([1]; bitumen extracted at 30 C) | Asphaltenes, oil composition of extracted bitumen ([1]; bitumen extracted at 30 C) | Resins, oil composition of extracted bitumen ([1]; bitumen extracted at 30 C) | Saturates, oil composition of extracted bitumen ([1]; bitumen extracted at 30 C) | Aromatics, oil composition of extracted bitumen [1] | Asphaltenes, oil composition of extracted bitumen [1] | Resins, oil composition of extracted bitumen [1] | Recovery of bitumen from oil sand material versus best known fluids [2] | Effectiveness for extraction of asphaltenes from oil sands (SARA) ([1]; bitumen extracted at 30 C) | Rate of tar mat dissolution relative to A150 [3]
S=C=S [Carbon Disulfide, carbon disulfide] | 41.89 Normalized Weight Percent | 13.85 Normalized Weight Percent | 25.49 Normalized Weight Percent | 18.77 Normalized Weight Percent | – | – | – | – | – | –
ClC(Cl)Cl [Chloroform, chloroform] | – | – | – | 15.64 Normalized Weight Percent | 43.56 Normalized Weight Percent | 14.86 Normalized Weight Percent | 25.94 Normalized Weight Percent | – | – | –
CSC [Dimethyl Sulfide, dimethyl sulfide] | 47.07 Normalized Weight Percent | 13.19 Normalized Weight Percent | 24.25 Normalized Weight Percent | 15.49 Normalized Weight Percent | – | – | – | comparable | excellent miscibility properties | not less than 1.4 times
C1CCOC1 [Tetrahydrofuran, tetrahydrofuran] | 45.24 Normalized Weight Percent | 14.27 Normalized Weight Percent | 24.38 Normalized Weight Percent | 16.11 Normalized Weight Percent | – | – | – | – | – | –
Cc1ccccc1C [o-Xylene, o-xylene] | 46.39 Normalized Weight Percent | 13.96 Normalized Weight Percent | 22.28 Normalized Weight Percent | 17.37 Normalized Weight Percent | – | – | – | – | – | –
